According to US8415327B2, “Methods of and compositions for reducing cell death” (priority 2009, dated 2013):
“Also recorded” adds a separate entry of the source.

How the values were obtained:
[1] = system: RGC-5 cells; test: Menadione-induced cell death in RGC-5 cells (calcein-AM viable cell count); type: cell-based; settings: for neuroprotection against menadione-induced cell death / effectiveness as neuroprotectant compared with PB3: RGC-5 cells; for % of the cells protected from menadione-induced cell death: 17.8 μM menadione, 24 hours; for effectiveness as neuroprotectant compared with PB3: menadione
Procedure: Cell Culture: Cells of RGC-5 (ATCC Deposit Accession No. PTA-6600), a neuronal cell line, were suspended in growth medium and plated in 96-well plates at a density of 2,000 cells per well. After 24 hours in culture, cells were treated with 17.8 μM menadione (Sigma-Aldrich, St. Louis, Mo.). Menadione creates oxidative stress resulting in cell death. PB3, PB4, or PB6 was added to the wells directly before menadione treatment. After 24 hours of menadione treatment, the cells were stained with calcein-AM and photographed.

[2] = system: RGC-5 cells; test: Rescue of RGC-5 cells from METC-active drugs (menadione, rotenone, antimycin A), calcein/propidium iodide viability assay; settings: for protection/rescue from death induced by menadione, rotenone and antimycin A: RGC-5 cells, 24 hours co-incubation; for rescue of RGC-5 cells at higher concentrations: most likely due to toxicity; for viability (live cells compared to untreated controls): 24 hours
Procedure: Cell Culture: RGC-5 cells were cultured in Dulbecco's modified Eagle's medium (DMEM) (Mediatech, Inc., Manassas, Va.). containing 1 g/L glucose, supplemented with 10% fetal bovine serum, 100 U/mL penicillin, and 100 μg/mL streptomycin (Mediatech, Inc.). Cells were passaged every 48 to 72 hours when cells were approximately 60 to 75% confluent, replated at a 1:20 dilution in a 75 cm^2 flask in 20 ml of cell culture media and incubated at 37° C. in humidified 5% CO2. Experiments were performed in duplicate or triplicate.
Cell Treatment and Assessment of Viability: Cells were plated in 96-well plates at a density of 60 cells/mm^2 in 50 μL of media. Approximately 24 hours after plating, 50 μL of media containing either menadione, rotenone, or antimycin A, either with or without PB1 and PB2, was added to the cells to generate the final concentrations of 10 nM, 1 μM, or 100 μM. Control wells received media containing vehicle alone. Following 24 hours of treatment, media was aspirated from wells using a 25-gauge needle and cells stained with calcein-AM (10 μg/mL) and propidium iodide (1 μg/mL) (both Invitrogen, Carlsbad, Calif.) in PBS for 30 minutes. The staining solution was aspirated using a 25-gauge needle and replaced with PBS. Three randomly chosen fields per well were photographed on an Axiovert 135 microscope under epifluorescence with a Nikon D70s digital SLR camera (Nikon, Melville, N.Y.) at a resolution of 3008×2000 pixels and an exposure time of 1.6 seconds. Live (calcein-positive) and dead (propidium iodide-positive) cells were assessed using Image) software. Pictures were batch analyzed using a macro containing the following actions: subtract background, threshold, erode, erode, watershed, and analyze particles between the sizes of 1000 pixels and infinity. […] Each experiment was analyzed with respect to its own set of controls to account for variation in passage number of the RGC-5 cells and small differences between batches of cryopreserved RGC-5 cells.
Statistics: Viability was assessed as number of live cells/mm^2, and compared to the untreated controls of each experiment. Means were compared using Student's unpaired t-test.
RGC-5 cells plated in 96-well plates were treated for 24 hours with the redox cycling agent menadione, the complex I inhibitor rotenone, or the complex III inhibitor antimycin A, at final concentrations ranging from 100 nM to 31.6 μM (menadione) or 1 μM to 316 μM (rotenone or antimycin A). […] RGC-5 cells were co-incubated with these mitochondrial electron transporter chain (METC)-drugs and the borane-phosphines PB1 or PB2 for 24 hours, followed by assessment of cell viability by calcein/propidium iodide assay. TCEP (100 μM) served as a positive control.

[3] = system: retinal endothelial cells; test: Radiation-induced death of retinal endothelial cells, calcein-AM/propidium iodide viability assay; type: cell-based, murine; settings: for rescue: 1 μM at the time of irradiation, 72 hours; for radio-protection: administered before or at the time of irradiation
Procedure: Cell Culture: Murine endothelial cells were isolated from Immortomice, which express a temperature-sensitive Simian virus 40 large T antigen, using sheep anti-rat Dynabeads coated with the rat anti-mouse PECAM-1 monoclonal antibody MEC13.3. […] Irradiation and Viability Assays: The cells were plated onto 1% gelatin coated 96-well plates at a density of 2,000 cells per well. For irradiation, control and treatment groups were removed from the incubator. Treatment groups received single doses of radiation between 1 and 30 Gray using an irradiator containing ^137Cesium (JL Shepherd & Associates) using a rotating platform to ensure uniform delivery. Control groups were left at room temperature during irradiation of the treatment groups. PB1 or PB2 was administered 18 hours before, immediately before, or 18 hours after irradiation. Media was aspirated 48 or 72 hours after irradiation using a 30 gauge needle and the cells were incubated in staining containing calcein-AM and propidium iodide in PBS for 30 minutes at room temperature in the dark. Digital photomicrographs of the wells were taken at a total magnification of 200× on a Zeiss Axiovert inverted microscope under epifluorescence. Calcein-positive (viable) and propidium iodide-positive (dead) cells were counted using NIH ImageJ software. Statistical significance was determined using the Student's t-tests.

[4] = system: retinal endothelial cells; test: Protection of retinal endothelial cells from H2O2 oxidative damage; type: cell-based, murine; settings: for most effective concentration against oxidative insults: tested at 1-1000 μM
Procedure: Cell Culture: Murine endothelial cells were cultured as described in Experiment 3. Endothelial cells were treated directly with high levels of H2O2 in the absence or presence of PB1 and PB2 at a concentrations of 1-1000 μM.

[5] = Superoxide scavenging (hydroethidine fluorescence, xanthine/xanthine oxidase); type: biochemical
Procedure: Superoxide scavenging: The ability of PB1 and PB2 to scavenge superoxide was quantified essentially as described ([…] et al., Invest. Opthalmol. Vis. Sci. 47:3878 (2006)). Essentially, fluorescence of hydroethidine was measured after exposure to superoxide generated by xanthine/xanthine oxidase, in the presence or absence of PB1, PB2, or polyethylene glycol-conjugated superoxide dismutase used as positive control.

[6] = Sulfhydryl reducing activity (DTNB); type: biochemical
Procedure: Sulfhydryl reducing activity: Sulfhydryl reducing activity was measured with 5-5′-dithio-bis(2-nitrobenzoic acid) (DTNB), which undergoes a colorimetric change when its disulfide linkage is reduced. Reaction of various concentrations of dithiothreitol, tris(carboxyethyl)phosphine, PB1, or PB2 with 30 mM DTNB in methanol was carried out in buffer at pH 5, 7, and 9. The sulfhydryl reduction potentials of PB1 and PB2 were assessed both before and after borane deprotection with DABCO.

In the case of B.CCCCCCOC(=O)CCP(CCC(=O)OCCCCCC)c1ccccc1 [PB3, bis(3-propionic acid hexyl ester)phenylphosphine borane complex], the “neuroprotection against menadione-induced cell death” value (from here on “neuroprotection”) [1] is reported as “neuroprotective”, the “% of the cells protected from menadione-induced cell death” value (from here on “% of the cells protected”) ([1]; compound 1 μM) is reported as 46.4±16.8% and the “% of the cells protected” value ([1]; compound 10 μM) is reported as 38.3±12.2%. For the same compound, the “% of the cells protected” value ([1]; compound 100 μM) was 30.9±4.3%.

With [BH3-][P+](CC(=O)NCC)(c1ccccc1)c1ccccc1 [PB6, (2-Ethyl acetamide)diphenylphosphine borane complex] the “neuroprotection” value [1] was “neuroprotective”, the “effectiveness as neuroprotectant compared with PB3” value [1] was “less effective neuroprotectants than PB3” and the “% of the cells protected” value ([1]; compound 10 pM) was 25.6±8.4%.

For [BH3-][P+](CCC(=O)OC)(c1ccccc1)c1ccccc1 [PB2, (3-propionic acid methyl ester)diphenylphosphine borane complex], the “toxicity to RGC-5 cells” value [2] was “toxic”, the “protection/rescue from death induced by menadione, rotenone and antimycin A” value [2] was “significant rescue; also recorded: significant protection” and the “rescue of RGC-5 cells at higher concentrations” value [2] was “little or no rescue”. For the same compound, the rescue ([3]; 3 Gy) was 46%, the radio-protection [3] was “effective radio-protectants” and the “viable cell counts, % of control” value ([4]; 1 µM) was 9.0±1.6%. The “most effective concentration against oxidative insults” value ([4]; H2O2) was 1 µM, the “superoxide scavenging as mechanism of protection” value [5] was “not superoxide scavenging” and the “disulfide reduction as mechanism of protection” value [6] was “involves disulfide reduction”.

With [BH3-][P+](CCC(=O)OC)(CCC(=O)OC)c1ccccc1 [PB1, bis(3-propionic acid methyl ester)phenylphosphine borane complex] the “protection/rescue from death induced by menadione, rotenone and antimycin A” value [2] was “significant rescue; also recorded: significant protection”, the “viability (live cells compared to untreated controls)” value ([2]; antimycin A, compound 100 μM, vs. 34±2% without compound) was 74±4% and the “rescue of RGC-5 cells at higher concentrations” value [2] was “little or no rescue”. The “viability (live cells compared to untreated controls)” value ([2]; menadione, compound 100 μM, vs. 34±4% without compound) was 83±5%, the “viability (live cells compared to untreated controls)” value ([2]; rotenone, PB1 concentration not restated (100 μM in preceding sentence), vs. 25±3% without compound) was 36±3% and the “protection against radiation exposures” value ([3]; 100 nM, 18 hours after irradiation, all radiation exposures tested) was “significant protection”. The “viable cell counts, % of non-irradiated control” value ([3]; 1 μM administered at the time of irradiation, 3 Gy, 72 hours after irradiation, 29±6% without compound) was 54±6%, the rescue ([3]; 3 Gy) was 35% and the “radiomitigation: change in viable cell counts” value ([3]; administered 18 hours after exposure to ionizing radiation up to 30 Gy) was “significant increases in viable cell counts”. The radio-protection [3] was “effective radio-protectants”, the “protection against radiation exposure” value ([3]; all PB1 treatment levels, 18 hours after irradiation, 30 Gy, p<0.05) was “significant protection” and the “viable cell counts, % of control” value ([4]; H2O2, compound 1 μM, 24 hours, 4.2±1.1% without compound) was 10.8±2.3%. For the same compound, the “most effective concentration against oxidative insults” value ([4]; H2O2) was 1 µM, the “superoxide scavenging as mechanism of protection” value [5] was “not superoxide scavenging” and the “disulfide reduction as mechanism of protection” value [6] was “involves disulfide reduction”.

With [BH3-][P+](CCC(=O)OCCCCCC)(c1ccccc1)c1ccccc1 [PB4, (3-propionic acid hexyl ester)diphenylphosphine borane complex] the “neuroprotection” value [1] was “neuroprotective”, the “effectiveness as neuroprotectant compared with PB3” value [1] was “less effective neuroprotectants than PB3” and the “% of the cells protected” value ([1]; compound 1 μM) was 19.0±5.5%.
